PMC12107103, “MTA-cooperative PRMT5 inhibitors from cofactor-directed DNA-encoded library screens” (Proceedings of the National Academy of Sciences of the …, 2025)
One block for each molecule: values may come before it.

How the values were obtained:
MTAP null tumors = system: MTAP null tumors; set-up: method as in PMID 39282709; conditions: patients with MTAP null tumors; cited from earlier work
PRMT5:MEP50 complex = molecular target: T1, PRMT5:MEP50 complex (Homo sapiens, UniProt O14744); assay: Thermal Stability Assay (TSA), thermal shift; type: binding; conditions: for stabilization of the complex by cofactor alone: cofactor added to apo complex (10 µM SIN, 10 µM SAM, or 5 µM MTA)
T1 construct: FLAG (N); purchased Reaction Biology Corp HMT-2-148; host or cells: insect cells (baculovirus)
T1 sequence (O14744 2-637 limits assumed): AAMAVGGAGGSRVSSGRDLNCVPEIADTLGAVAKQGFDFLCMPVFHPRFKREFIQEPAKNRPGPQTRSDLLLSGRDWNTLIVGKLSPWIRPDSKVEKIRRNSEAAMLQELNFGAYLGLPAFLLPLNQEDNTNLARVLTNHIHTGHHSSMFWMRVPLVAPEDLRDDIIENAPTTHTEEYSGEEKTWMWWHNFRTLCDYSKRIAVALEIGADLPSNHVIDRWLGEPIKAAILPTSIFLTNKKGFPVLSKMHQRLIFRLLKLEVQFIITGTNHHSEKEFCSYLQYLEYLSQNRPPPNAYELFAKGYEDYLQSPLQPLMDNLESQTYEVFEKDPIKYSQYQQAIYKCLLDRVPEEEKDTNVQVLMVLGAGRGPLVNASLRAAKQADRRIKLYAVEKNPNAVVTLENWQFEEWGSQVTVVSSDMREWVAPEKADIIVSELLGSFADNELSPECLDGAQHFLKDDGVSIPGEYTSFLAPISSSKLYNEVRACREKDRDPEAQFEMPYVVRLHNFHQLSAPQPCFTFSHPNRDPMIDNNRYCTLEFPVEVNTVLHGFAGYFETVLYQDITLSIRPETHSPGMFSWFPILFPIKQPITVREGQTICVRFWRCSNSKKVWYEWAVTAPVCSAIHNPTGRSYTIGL
T1 sequence (Q9BQA1 2-342 partner limits assumed): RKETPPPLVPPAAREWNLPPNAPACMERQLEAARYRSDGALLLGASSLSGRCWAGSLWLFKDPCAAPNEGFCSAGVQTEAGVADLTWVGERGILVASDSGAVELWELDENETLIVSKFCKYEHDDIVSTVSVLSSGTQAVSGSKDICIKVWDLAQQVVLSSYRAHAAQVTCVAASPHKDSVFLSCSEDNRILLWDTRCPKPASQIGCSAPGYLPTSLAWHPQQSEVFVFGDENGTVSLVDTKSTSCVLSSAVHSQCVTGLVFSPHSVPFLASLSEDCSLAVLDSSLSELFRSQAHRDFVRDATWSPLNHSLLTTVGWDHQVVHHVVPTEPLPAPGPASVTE
Protocol: 0.1 µM PRMT5:MEP50 complex was incubated with compounds in a buffer consisting of 50 mM Tris-HCl pH 8.0, 50 mM NaCl, 1 mM TCEP, and 4xSypro Orange (Thermo Fisher, S-6650) in the absence or presence of cofactor (10 µM SIN, 10 µM SAM, or 5 µM MTA) and read on a StepOne™ Real-Time PCR machine (Applied Biosystems™) using a temperature ramp of 0.5 °C/min over a range of 25 to 95 °C.

[1] = system: Parental HCT116 cells (MTAP WT); assay: SDMA high-content imaging assay, parental cells; type: cell-based; conditions: Homo sapiens, HCT-116, 72 h, read-out: IC50, reduction of cellular SDMA
Protocol: (§1) Cells were seeded into 96-well plates and incubated with compound for 3 d before fixing with 4% PFA (in 1× PBS) for 15 min. Cells were then washed once with Wash Buffer (1× PBS + 1% BSA + 0.2% Triton X-100), 100 µL/well for 15 min before blocking for 1 h Using Licor Odyssey blocking reagent ([…]) (100 µL/well). After three washes in Wash Buffer, cells were then stained for 2 h with anti-SDMA antibody (1:2,000 in Wash Buffer), washed three times in Wash Buffer, stained for 1 h in the dark using anti-rabbit Alexa-488 (1:2,000 in Wash Buffer) and Hoechst 33342 (1:5,000), followed by three washes in Wash Buffer before quantifying on a Cellomics Array Scan image system.

[2] = system: MTAP-deleted HCT116 cells; assay: SDMA high-content imaging assay, MTAP-deleted cells; type: cell-based; conditions: Homo sapiens, HCT-116, 72 h, read-out: IC50, reduction of cellular SDMA
Protocol: as §1

[3] = system: Parental HCT116 cells (MTAP WT); assay: Cell viability (CellTiter-Glo), parental cells; type: cell-based; conditions: Homo sapiens, read-out: IC50, cell viability
Protocol: (§2) Parental (HD PAR-034) and MTAP^−^/^− (HD R02-033) colorectal cancer HCT116 cell lines were obtained from Horizon Discovery and maintained in RPMI1640 supplemented with 10% fetal bovine serum and antibiotics or in McCoy 5A supplemented with 10% fetal bovine serum (for mouse experiments). Other cell lines were obtained from ATCC and maintained according to instructions. Effects of compounds on cell viability were assessed using the CellTiter-Glo Kit from Promega (G7571) after 6 d of compound incubation and quantified using an EnVision® 2105 multimode plate reader (PerkinElmer) in luminescence mode.

[4] = system: MTAP-deleted HCT116 cells; assay: Cell viability (CellTiter-Glo), MTAP-deleted cells; type: cell-based; conditions: Homo sapiens, read-out: IC50, cell viability
Protocol: as §2

[5] = system: 24-cell line panel of MTAP WT and MTAP-deleted cell lines; assay: Cell viability across 24-cell line panel; type: cell-based; conditions: MTAP WT vs MTAP-deleted
Protocol: as §2

HCT116 MTAP WT tumors = assay: Contralateral tumor model, tumor SDMA ELISA, WT tumors; type: in vivo, mouse; conditions: parental (MTAP WT) tumors, daily for 4 d
Protocol: (§3) Mice were implanted contralaterally on their flanks with parental and MTAP-deleted HCT116 cells such that each mouse would carry one WT and one MTAP-deleted tumor (Fig. 4A). This design eliminates variance in compound exposures between groups and allows direct assessment of MTAP status impact on compound effects. […] Four hours post the fourth dose, tumors were analyzed for SDMA content by ELISA. […] This confirms the MTA-selective action of AM-9934 in the tumor setting.
(§4) HCT116 colon carcinoma WT and MTAP^−^/^− isogenic cells were determined to be free of contamination with mycoplasma as well as a panel of murine viral pathogens in addition to being authenticated. Mice were inoculated s.c. with 2 × 10^6 HCT116 WT cells on the left flank and 2 × 10^6 HCT116 MTAP^−^/^− cells on the right flank in 33% Matrigel. Mice were enrolled once both tumors reached 250 to 500 mm^3 and randomized into vehicle vs. PRMT5i treated groups (N = 3). Vehicle or PRMT5i treatment started on day 14 postimplantation orally and treated once daily for 4 d. […]
(§5) Preparation of protein lysates from snap-frozen tumors was carried out as follows: samples were collected in a Covaris Tissue Tube (520001 TT1) to be used in conjunction with the CryoPrep. […] The protein concentration of each lysate was then determined using a BCA assay. […]

HCT116 MTAP Null tumors = assay: Contralateral tumor model, tumor SDMA ELISA, MTAP-deleted tumors; type: in vivo, mouse; conditions: daily for 4 d
Protocol: as §3, §4, §5

[6] = Blood/tumor compound concentrations in contralateral tumor model; type: in vivo, mouse; conditions: 4 h post last dose, 50-200 mg/kg
Protocol: HCT116 colon carcinoma WT and MTAP^−^/^− isogenic cells were determined to be free of contamination with mycoplasma as well as a panel of murine viral pathogens in addition to being authenticated. Mice were inoculated s.c. with 2 × 10^6 HCT116 WT cells on the left flank and 2 × 10^6 HCT116 MTAP^−^/^− cells on the right flank in 33% Matrigel. Mice were enrolled once both tumors reached 250 to 500 mm^3 and randomized into vehicle vs. PRMT5i treated groups (N = 3). Vehicle or PRMT5i treatment started on day 14 postimplantation orally and treated once daily for 4 d. Blood was collected at 4 h post–last dose (day 17 postimplantation) for pharmacokinetic analysis in Microtainer tubes containing lithium heparin. Blood was centrifuged at 7,000 rpm at 4 °C for 7 min. Tumors from both sides were also collected and snap-frozen for pharmacokinetic analysis and SDMA ELISA. Plasma and tumors were collected and stored at −80 °C until analysis.

in vitro = conditions: human, primary bone marrow-derived megakaryocytes
[7] = system: arginine-, lysine-, and DNA-methyltransferases; assay: Methyltransferase panel profiling (BPS Bioscience): other methyltransferases; conditions: tested up to 10 µM

Compound: Nc1nc2cnc(C(=O)N3CCOC[C@@H]3c3ccc(C(F)(F)F)cc3)cc2c2c1COC2 [AMG 193]
antitumor responses in patients (MTAP null tumors): initial antitumor responses

Compound: Cc1cc2cc(C(=O)N(Cc3ccc(C(F)(F)F)cn3)CC(C)C)ccc2nc1N [AM-9934]
stabilization in the presence of MTA (PRMT5:MEP50 complex; MTA-bound complex, compound 0.1 µM): 9.3 K
IC50 [1]: 143 nM
IC50 [2]: 9.2 nM
IC50 ([3]; HCT-116, […]): 4100 nM
IC50 ([4]; HCT-116, […]): 160 nM
discrimination of viability potency by MTAP status [5]: significantly higher potency toward MTAP-deleted cell lines
suppression of tumor SDMA levels (in words) (HCT116 MTAP WT tumors): insignificant at lower doses
suppression of tumor SDMA levels (in words) (HCT116 MTAP Null tumors): all three doses reached significant levels of SDMA suppression
exposures (blood/tumor compound concentrations) [6]: exposures increased with dose
IC50 (in vitro): 3100 nM
inhibitory activity toward the other tested methyltransferases [7]: No significant inhibitory activity

Compound: CC(=O)N1CCC(Nc2cc(C(=O)NC[C@H](O)CN3CCc4ccccc4C3)ncn2)CC1 [GSK3326595]
suppression of tumor SDMA levels (in words) (HCT116 MTAP WT tumors): marked suppression
suppression of tumor SDMA levels (in words) (HCT116 MTAP Null tumors): marked suppression

stabilization of the MTA-bound complex (PRMT5:MEP50 complex; MTA-bound complex, compound 10 µM): no stabilization
stabilization of the SAM-bound complex (PRMT5:MEP50 complex; SAM-bound complex, compound 10 µM): showed an interaction
stabilization of the SIN-bound complex (PRMT5:MEP50 complex; SIN-bound complex, compound 10 µM): showed an interaction
IC50 ([2]; MTAP-deleted HCT116, 3 d incubation): 4.3 nM
IC50 ([4]; HCT-116, MTAP-deleted HCT116, 6 d incubation): 600 nM
IC50 (in vitro): 360 nM
Compound: O=C(NC[C@H](O)CN1CCc2ccccc2C1)c1cc(NC2COC2)ncn1 [EPZ015666]
IC50 ([1]; parental HCT116, 3 d incubation): 9.6 nM
IC50 ([3]; HCT-116, parental HCT116, 6 d incubation): 890 nM
discrimination of viability potency by MTAP status [5]: did not significantly discriminate

Compound: C[S+](CC[C@H](N)C(=O)[O-])C[C@H]1O[C@@H](n2cnc3c(N)ncnc32)[C@H](O)[C@@H]1O (some centres unmarked) [SAM, S-Adenosyl methionine]
stabilization of the complex by cofactor alone (PRMT5:MEP50 complex): < 0.5 K

stabilization of the complex by cofactor alone (PRMT5:MEP50 complex): < 0.5 K
Compound: CSC[C@H]1O[C@@H](n2cnc3c(N)ncnc32)[C@H](O)[C@@H]1O [MTA, methylthioadenosine]

stabilization of the complex by cofactor alone (PRMT5:MEP50 complex): < 0.5 K
Compound: Nc1ncnc2c1ncn2[C@@H]1O[C@H](C[C@@H](N)CC[C@H](N)C(=O)O)[C@@H](O)[C@H]1O [SIN, sinefungin]
